According to patent US20200009211A1, “CURCUMIN-CONTAINING MEDICINAL PREPARATION” (SAN-EI GEN F.F.I., INC., priority 2017, published 2020):

Assay: Curcumin administration test (A) in HFD-challenged mice: plasma TCHO, CM, LDL (Test Example 11)
Format: in vivo, mice (C57BL/6)
Conditions: HFD-challenged C57BL/6 mice, ad libitum drinking of aqueous liquid for 12 weeks
Procedure: In this test, total cholesterol (TCHO), chylomicron (CM), and LDL cholesterol (LDL) were measured. […] After the feeding period, blood was sampled and centrifuged at […] at 4° C. for 15 minutes to obtain plasma. The plasma was measured by a Fuji Dri-Chem 4000V biochemical automatic analyzer (Fujifilm, Tokyo, Japan).

**Q.** Which “CM (chylomicron) in plasma” value does the source give for `CC(C)(Oc1ccc(CCNC(=O)c2ccc(Cl)cc2)cc1)C(=O)O` [Bezafibrate] here?
**A.** 0.53 mg/dL

**Q.** What about the “LDL (LDL cholesterol) in plasma” value of the same compound?
**A.** 17.9 mg/dL

**Q.** And the “TCHO (total cholesterol) in plasma” value?
**A.** 125.0 mg/dL
